A short description of this data set: CEST imaging in vivo (diaCEST MRI) after intravaginal administration. Set-up: species or system mice. As to the method: Naturally cycling, estrus phase female mice were used for the intravaginal distribution study and the in vivo CEST imaging studies. In brief, female CF-1 mice (6-8 weeks old, Harlan, Indianapolis, Ind.) were housed in a reversed light cycle facility (12-hour light/12-hour dark). Mice were selected for external estrus appearance, which was confirmed upon dissection. All animal studies were performed in accordance to protocols approved by the Institutional Animal Care and Use Committee (IACUC) at the Johns Hopkins University.
Mice were anesthetized using isoflurane and positioned in a 11.7 T horizontal bore Bruker Biospec scanner (Bruker Biosciences, Billerica, Mass.). Twenty microliters of BA-loaded 7 mol %-PEG liposome suspension (4 mg BA/mL) or free BA solution at a equivalent dose were administered intravaginally via a customized catheter. Imaging was performed before and at 30 min-intervals after the intravaginal administration up to 1.5 h. Axial images were acquired at ˜2 mm above the tip of the catheter that was inserted ˜5 mm deep from the vaginal opening. […]
MR images were processed using custom-written Matlab scripts with the CEST contrast quantified by calculating the asymmetry in the magnetization transfer ratio (MTRasym) using MTRasym=(S−Δω−S+Δω)/S0 for NH protons at the frequency offset of BA from water (Δω)=5 ppm. […]

Regarding `O=C1CC(=O)NC(=O)N1` [unencapsulated BA, barbituric acid], the “vaginal retention time / duration of CEST contrast” value (intravaginal, mice, imaging up to 1.5 h) is listed as approximately 30 min. The “vaginal retention by diaCEST MRI” value (liposomal vs unencapsulated BA) is listed as “much shorter vaginal retention time”.

The values above are taken from patent US20170281541A1, “LIPOSOME-BASED MUCUS-PENETRATING PARTICLES FOR MUCOSAL DELIVERY” (The Johns Hopkins University, priority 2014, published 2017).
